Data set [1] relates to human insulin promoter in HIT-T15 β-cells. The data set can be described thus: Insulin promoter (phINS-Luc) dual luciferase assay in HIT-T15 β-cells. The class given is cell-based, rat. How it is done:
FIGS. 4A-C show an increase in insulin mRNA and protein content by cytopiloyne in pancreatic islet cells. (A) HIT-T15 β-cells transfected with phINS-Luc and pRL-TK plasmids were incubated with vehicle (NS), glimepiride (GLM, 10 μM), high glucose (HG, 16.7 mM) or cytopiloyne at 7, 14 or 28 μM. Ten μg of cell lysates from these cells underwent to dual luciferase assays. […] (C) Rat pancreatic islet cells were treated with vehicle, glucose (3.3 mM (LG) or 16.7 mM (HG)) or cytopiloyne (CP, 7, 14 and 28 μM) in the presence of brefeldin A for 24 h. After anti-insulin antibody staining, these cells underwent FACS analysis. The percentage of insulin-positive β-cells is shown. All the results from 3 independent experiments are expressed as mean±SEM, and P<0.05 was considered to be statistically significant (*).
(A) RIN-M5F cells were grown in medium with 16.7 mM (HG) or 3.3 mM glucose (LG) in the presence of PMA. GF and cytopiloyne. The insulin level of the supernatants was determined using an ELISA kit. (B) RIN-M5F cells were transfected with 5 μg of dominant-negative PKCα or control plasmid grown in medium with 16.7 mM (HG) or 3.3 mM glucose (LG) in the presence of PMA (1 μM), GF109203X (3 μM) or cytopiloyne. The insulin level of the supernatants was determined using an ELISA kit. (C) HIT-T15 cells were transfected with phINS-Luc and pRL-TK plasmids. The cells were grown in medium with 16.7 mM (HG) or 3.3 mM glucose (LG) in the absence or presence of PMA, GF109203X and cytopiloyne. The cell lysates were subjected to dual luciferase assays. (D) HIT-T15 cells were transfected with vehicle or dominant-negative PKCα plasmid together with phINS-Luc and pRL-TK plasmids. The cells were grown in medium with 16.7 mM (HG) or 3.3 mM glucose (LG) in the absence or presence of PMA and cytopiloyne. The cell lysates were subjected to dual luciferase assays.
Plasmids phINS-Luc and pRL-TK contain a human insulin promoter (2347 bp) from phINS-DCR3 vector linked to a firefly luciferase gene and the thymidine kinase promoter linked to Renilla luciferase reporter gene, respectively. Dominant-negative PKCα, phINS-Luc and/or pRL-TK were transfected into HIT-T15 cells with lipofectamine or electroporation.

The subject of data set [2] is pancreatic islets of db/db mice. The data set can be described thus: Pancreatic islet histology/immunohistochemistry in db/db mice. The note with it: for pancreatic islet structure after long-term treatment: db/db mice 12 to 14 weeks old, cytopiloyne 0.5 and 2.5, glimepiride 2.5 mgkg^−1 day^−1 (FIG. 1F). The class given is in vivo, mouse. The method, then:
(§1) FIGS. 1A-F show the anti-diabetic effects of cytopiloyne in db/db mice during long-term treatment. (A) Chemical structure of cytopiloyne (2-β-D-glucopyranosyloxy-1-hydroxytrideca-5,7,9,11-tetrayne). (B) Four groups of 6-to-8-week-old diabetic db/db mice were tube-fed with vehicle, cytopiloyne (CP, 0.5 and 2.5 mgkg^−1 day^−1) or glimepiride (GLM, 2.5 mgkg^−1 day^−1) from 0 to 42 days post-treatment. Blood glucose (BG) levels in these mice were measured. (C) Blood insulin levels from the mice of FIG. 1B. (D) IPGTT was performed in the db/db mice of FIG. 1B on day 0, 28 and 42, and blood glucose levels were monitored for 3.5 h. (E) The percentage of glycosylated HbAlc of whole blood from the mice of FIG. 1B on day 0 and 42. (F) Pancreata of 8- and 16-week-old db/db males, which had received the same treatment as FIG. 1B for 2 (images a-h) and 10 (images i-p) weeks, were stained with hematoxylin and eosin (H&E, images a, c, e, g, i, k, m and o) or hematoxylin and anti-insulin (H&I, images b, d, f, h, j, l, n and p). The arrowheads indicate pancreatic islets. Scale bars, 200 μm. Results from 3 independent experiments are expressed as mean±SEM, and P<0.05 was considered to be statistically significant (*). The number of mice (n) is indicated in parentheses.
Pancreata from db/db males with continuous drug administration were snap frozen in OCT™ compound and stained with hematoxylin and eosin or anti-insulin antibody, followed by diaminobenzidine tetrahydrochloride development. Multiple parallel sections of each pancreas were analyzed by light microscopy.

Data set [3] relates to adipocyte protein 2 (aP2). Kind of data set: Real-time RT-PCR of aP2 mRNA relative to GAPDH in 3T3-L1 cells. The data set is classed as cell-based, mouse.
For data set [4], the system named is db/db mice. Kind of data set: Blood insulin after a single oral dose in fed diabetic db/db mice. The data set is classed as in vivo, mouse. The note with it: for blood insulin levels compared to vehicle, effect in words: single dose, db/db mice; for Blood insulin level: fed db/db mice. The method, then:
(§2) After 0.5 h, the levels of postprandial blood sugar and insulin from the mice were monitored for additional 4 h. For continued administration, diabetic db/db males were grouped and tube-fed with vehicle, cytopiloyne (0.5 or 2.5 mgkg^−1 day^−1) or glimepiride (2.5 mg kg^−1 day^−1) for the indicated time, while levels of blood sugar, insulin, and glycosylated HbA1c, and glucose tolerance in these mice were determined. To evaluate the prophylaxis of diabetes, diabetes-free db/db mice at 4 weeks of age were tube-fed with vehicle or cytopiloyne (CP, 0.5 mgkg^−1), once a day, for 4 weeks. Unless indicated otherwise, the mice were fasted for 16 h, then Postprandial blood glucose and insulin in these mice were measured.
(§3) Glucose levels in mouse blood samples were measured using an Elite® glucometer (Bayer, Pittsburgh, Pa., USA). Insulin levels in blood samples or islet cell supernatants were determined by ELISA assays (Mercodia, Uppsala, Sweden). The levels of glycosylated HbA1c in mouse blood samples were measured using DCA 2000 analyzer (Bayer, Pittsburgh, Pa., USA).
The same procedure as Table 1 was performed. Blood samples at the indicated time interval (0, 0.5, 1, 2, and 4 h) were collected from the retro-orbital vein of those mice and the insulin levels in each blood sample were determined using ELISA kits. The number of mice used (n) is indicated in parentheses in the first column.

Data set [5] has as its system insulin mRNA in rat primary pancreatic islet cells. Kind of data set: Real-time RT-PCR of insulin mRNA relative to L13 in rat pancreatic islet cells. The data set is classed as cell-based.
For data set [6], the system named is db/db mice. The data set can be described thus: Glycosylated HbA1c in db/db mice after long-term treatment. The class given is in vivo, mouse. The method, then: as §1, §2, §3
Setting [7] is: single oral dose 2.5 mg/kg, 0 h.
[8] abbreviates: single oral dose 2.5 mg/kg, 0.5 h.
The mark [9] stands for this setting: single oral dose 2.5 mg/kg, 1 h.
[10] abbreviates: single oral dose 2.5 mg/kg, 2 h.
The mark [11] stands for this setting: single oral dose 2.5 mg/kg, 4 h.
The mark [12] stands for this setting: 2.5 mgkg^−1 day^−1, day 42, db/db mice 12 to 14 weeks of age (untreated 7.3%).
The mark [13] stands for this setting: 2.5 mgkg^−1 day^−1, versus untreated db/db mice.

The structures appear in SMILES notation.

For the molecule `CC#CC#CC#CC#CCCC(CO)O[C@@H]1O[C@H](CO)[C@@H](O)[C@H](O)[C@H]1O` (stereo partly drawn) [cytopiloyne, 2-β-D-glucopyranosyloxy-1-hydroxytrideca-5,7,9,11-tetrayne], in data set [1] (28 μM, HIT-T15 β-cells, 24 h), the “insulin transcription (reporter), fold increase” value came out at 5 times. In addition, the “insulin transcription in HIT-T15 cells” value in data set [1] (FIG. 6C, glucose 16.7 mM) is reported as “stimulated insulin transcription”. The “pancreatic islet structure after long-term treatment” value in data set [2] is “much greater preservation of islet structure”. Further, the “protection against islet atrophy” value in data set [2] (low dose 0.5 mgkg^−1 day^−1, db/db mice (FIG. 1F)) is reported as “protected against islet atrophy”. The aP2 expression entry in data set [3] (5, 25 and 50 μM, 3T3-L1 cells) is “little effect on aP2 expression”. Moreover, the “blood insulin levels compared to vehicle, effect in words” value in data set [4] is listed as “significantly elevated the blood insulin levels”. In addition, the Blood insulin level stood at 17.2 ± 4.7 µg/L in data set [4] (single oral dose 0.1 mg/kg, 0 h); 21.0 ± 1.3 µg/L in data set [4] (single oral dose 0.1 mg/kg, 0.5 h); 15.5 ± 0.6 µg/L in data set [4] (single oral dose 0.1 mg/kg, 1 h); 14.1 ± 0.5 µg/L in data set [4] (single oral dose 0.1 mg/kg, 2 h); 9.7 ± 1.3 µg/L in data set [4] (single oral dose 0.1 mg/kg, 4 h); 15.7 ± 1.9 µg/L in data set [4] (single oral dose 0.5 mg/kg, 0 h). In addition, the Blood insulin level was 22.6 ± 1.9 µg/L in data set [4] (single oral dose 0.5 mg/kg, 0.5 h); 16.0 ± 2.4 µg/L in data set [4] (single oral dose 0.5 mg/kg, 1 h); 12.8 ± 0.7 µg/L in data set [4] (single oral dose 0.5 mg/kg, 2 h); 12.2 ± 1.9 µg/L in data set [4] (single oral dose 0.5 mg/kg, 4 h); 12.5 ± 1.2 µg/L in data set [4] (setting [7]); 25.5 ± 1.2 µg/L in data set [4] (setting [8]). The Blood insulin level stood at 18.9 ± 3.3 µg/L in data set [4] (setting [9]), 17.6 ± 1.7 µg/L in data set [4] (setting [10]) and 8.9 ± 2.1 µg/L in data set [4] (setting [11]). Moreover, the “up-regulation of insulin transcription relative to that by 16.7 mM glucose” value in data set [5] (28 μM (FIGS. 4A-B)) turned out to be 40%. The “insulin mRNA relative to L13 mRNA, fold” value in data set [5] (28 μM, rat islet cells, 24 h) is listed as “around 2 times”. Moreover, the “HbA1c glycosylated in the blood” value is on record as 6% in data set [6] (0.5 mgkg^−1 day^−1, day 42, db/db mice 12 to 14 weeks of age (untreated 7.3%)) and 5.6% in data set [6] (setting [12]). Also, the “decrease of glycosylated HbA1c” value in data set [6] (0.5 mgkg^−1 day^−1, versus untreated db/db mice) came out at 1.3%; in data set [6] (setting [13]), 1.7%.
Regarding `CCC1=C(C)CN(C(=O)NCCc2ccc(S(=O)(=O)NC(=O)N[C@H]3CC[C@H](C)CC3)cc2)C1=O` [glimepiride, reference compound], the “insulin transcription (reporter) compared to the control” value in data set [1] (10 μM, HIT-T15 β-cells, 24 h) is on record as “no significant effect on insulin transcription”. For the same molecule, the “pancreatic islet structure after long-term treatment” value is on record as “sporadic islets” in data set [2] and “failed to provide such a protection” in data set [2] (listed as Glimepiride). In addition, the “aP2 expression, times of the control” value in data set [3] (mouse, 8 days, 10 μM) came to 31 times. Moreover, the “blood insulin levels compared to vehicle, effect in words” value in data set [4] is “significantly elevated the blood insulin levels”. Besides, the Blood insulin level stood at 13.9 ± 1.2 µg/L in data set [4] (setting [7]); 19.3 ± 4.2 µg/L in data set [4] (setting [8]); 26.3 ± 3.3 µg/L in data set [4] (setting [9]); 15.9 ± 1.7 µg/L in data set [4] (setting [10]); 11.8 ± 2.1 µg/L in data set [4] (setting [11]). Besides, the “insulin mRNA relative to L13 mRNA” value in data set [5] (10 μM, rat islet cells, 24 h) was “slightly decreased insulin transcription”. In data set [6] (setting [12]), the “HbA1c glycosylated in the blood” value is 6.3%. In addition, the “decrease of glycosylated HbA1c” value in data set [6] (setting [13]) is on record as 1%.

For the origin of these results see US8575116B1, “Polyacetylenic compounds for protecting against pancreatic islet atrophy” (Academia Sinica, priority 2010, dated 2013).
